One data set has as its system CD-1 mouse. The experiment in a line: In Vivo 3-MPA-Induced Convulsions (tonic hindlimb extension). As for the experimental part: In the CD-1 mouse, i.p. injection of 3-MPA produces clonic seizures, tonic hindlimb extension and death. Seizures begin within 2-3 minutes after injection. The dose-response for induction of tonus by 3-MPA is unusual. The incidence of tonus increases rapidly from 35 to 50 mg/kg and remains constant at a less than maximal level over a broad dose range. 3-MPA doses from 50 to 150 mg/kg produce tonus in approximately 75% of the treated mice. The incidence of death over this dose range is variable and less than maximal.
In order to test for antagonism of 3-MPA-induced tonus, the lowest dose of 3-MPA that produced tonus consistently in 75% of the animals (50 mg/kg i.p.) was chosen. Test compounds were administered subcutaneously 30-40 minutes prior to i.p. administration of 3-MPA. Immediately after 3-MPA administration, each mouse was placed in a small cage made of steel rods. The mice were then observed for the presence or absence of tonic hindlimb extension. Reduction (from 75%) in the incidence of tonic hindlimb extension was considered protection from 3-MPA-induced convulsions. The dose of the test compound varied using groups of ten mice per dose until dose response curves are constructed, and ED50 's are calculated.

The next data set relates to chick embryo retina. Conditions: agonist alone, pilot experiments, 30 min; cited from earlier work.
The target of another data set is NMDA receptor. Nature of the data set: NMDA-specific L-[3H]glutamate receptor binding assay, synaptic plasma membranes. Conditions: L-[3H]glutamate 12.5 nM, Triton X-100 treated SPM, 0-4° C., 10 min. The procedure: (§1) Synaptic plasma membranes (SPM) were prepared as previously described [Monahan, J. B. and Michel, J., "Identification and Characterization of an N-methyl-D-aspartate-specific L[^3 H]glutamate Recognition Site in Synaptic Plasma Membranes, J. Neurochem., 48, 1699-1708 (1987)]. The SPM were stored at a concentration of 10-15 mg/ml in 0.32M sucrose, 0.5 mM EDTA, 1 mM MgSO4, 5 mM Tris/SO4, pH 7.4, under liquid nitrogen. The identity and purity of the subcellular fractions were confirmed by both electron microscopy and marker enzymes. Protein concentrations were determined by using a modification of the method of Lowry [Ohnishi, S. T. and Barr, J. K., "A Simplified Method of Quantitating Proteins Using the Biuret and Phenol Reagents", Anal. Biochem., 86, 193-197 (1978)].
Prior to use in the NMDA-specific L-[^3 H]glutamate binding assay the SPM were thawed, diluted twenty fold with 50 mM Tris/acetate, pH 7.4 containing 0.04% (v/v) Triton X-100, incubated for 30 minutes at 37° C. and centrifuged as described above. The Triton X-100 treated membranes were washed with 50 mM Tris/acetate, pH 7.4 and centrifuged at 100,000 g for 15 minutes a total of four times.
(§2) The basic procedure for the receptor subclass binding assays was similar. This general method involved adding the radioligand (12.5 nM L-[^3 H]glutamate; 0.5 nM [^3 H]kainate or 10 nM [^3 H]AMPA) to the appropriate concentration of the test compound and initiating the assay by the addition of ice cold synaptic plasma membranes (0.2-0.45 mg). The binding assays were performed in 1.5 mL centrifuge tubes with the total volume adjusted to 1.0 mL. .Additions of test compounds were made in 50 mM Tris/acetate, pH 7.4 and incubations were carried out at 0°-4° C. The incubation time for the NMDA and the AMPA binding assays was 10 minutes, for the kainate binding assay 60 minutes and for the sodium-dependent glutamate binding assay 15 minutes. The AMPA binding assay contained 100 mM KSCN and the sodium-dependent glutamate binding assay contained 150 mM sodium acetate in addition to the previously described reagents.
(§3) To terminate the incubation, the samples were centrifuged for 15 minutes at 12,000 g and 4° C. in a Beckman Microfuge 12. The supernatant was aspirated and the pelleted membranes dissolved in Beckman BTS-450 tissue solubilizer for a minimum of 6 hours at room temperature. Beckman MP scintillation cocktail containing 7 mL/1 acetic acid was then added and the samples counted on a Beckman LS 5800 or 3801 liquid scintillation counter with automatic corrections for quenching and counting efficiency.
(§4) Nonspecific binding was defined as the residual binding in the presence of either excess L-glutamate (0.1-0.4 mM), kainate (0.01 mM), or NMDA (0.5 mM), and was 15-25% of the total binding in the NMDA binding assay, 19-27% in the AMPA binding assay, 20-30% in the kainate binding assay and 10-15% in the sodium-dependent binding assay. Radioligand binding to the synaptic plasma membranes was analyzed using Scatchard and Hill transformations and the Ki values of the compounds determined using logit-log transformations. Calculations and regression analysis were performed using templates developed for Lotus 1, 2, 3 as previously described [Pullan, L. M. "Automated Radioligand Receptor Binding Analysis with Templates for Lotus", Computer Appln. Biosci., 3 131 (1987)]. Binding results are reported in Table II for example compounds of the invention. […]

The target of another data set is KA (kainate) receptor. Nature of the data set: [3H]kainate receptor binding assay, synaptic plasma membranes. The conditions noted are these: [3H]kainate 0.5 nM, 0-4° C., 60 min. As for the experimental part:
as §1
(§5) The SPM were treated identically for the [^3 H]AMPA (QUIS), [^3 H]kainate and sodium-dependent L-[^3 H]-glumatate binding assays. The SPM were thawed at room temperature, diluted twenty-fold with 50 mM Tris/acetate, pH 7.4, incubated at 37° C. for 30 minutes, and centrifuged at 100,000 g for 15 minutes. The dilution, incubation, and centrifugation was repeated a total of three times.
as §2, §3, §4

Data set [1] deals with Quis (quisqualate) receptor. Nature of the data set: [3H]AMPA (QUIS) receptor binding assay, synaptic plasma membranes. The conditions noted are these: [3H]AMPA 10 nM, 100 mM KSCN, 0-4° C., 10 min. The procedure: as §1, §5, §2, §3, §4

As a reminder, the Ki is a measure of affinity in units of concentration, obtained from inhibition or displacement. Lower therefore signals a stronger hold on the target.

On to `O=C(O)CCS` [Example 3-MPA], for which the “mice with tonus produced by 3-MPA” value in the data set with CD-1 mouse (3-MPA 50 to 150 mg/kg i.p.) is “approximately 75%”. Further, in the data set with CD-1 mouse (3-MPA i.p.), the “time after injection at which seizures begin” value is 2 to 3 min. In the data set on CD-1 mouse (i.p.), the “lowest dose of 3-MPA that produced tonus consistently in 75% of the animals” value is recorded as 50 mg/kg.

On to `C=C(C)[C@H]1CN[C@H](C(=O)O)[C@H]1CC(=O)O` [KA, Kainate], for which the “lowest concentration required to consistently obtain fully developed retinal lesions” value in the data set with chick embryo retina was 25 µM.

`CCOP(=O)(O)Cc1ccc(C(N)C(=O)O)cc1` (stereo not shown) [VII, 4-(Ethylphosphonomethyl)phenylglycine]: the Ki at NMDA receptor is 70 µM; in data set [1], more than 300 µM. At KA (kainate) receptor, the “Receptor binding, KA (Ki)” value is more than 300 µM.

Turning to `Cc1cc(C(N)C(=O)O)c(C)cc1CP(=O)(O)O.Cl` (stereo not shown) [X, 2,5-dimethyl-4-(phosphonomethyl)phenylglycine hydrochloride], the Ki at NMDA receptor was 21.3 µM; in data set [1], more than 300 µM. The “Receptor binding, KA (Ki)” value on KA (kainate) receptor is more than 300 µM.

Regarding `N[C@H](CCCCCP(=O)(O)O)C(=O)O` [D-AP7, reference compound], the Ki at NMDA receptor is 4 µM; in data set [1], more than 300 µM. For the same compound, the “Receptor binding, KA (Ki)” value on KA (kainate) receptor is more than 300 µM.

As for `NC(CCCCCP(=O)(O)O)C(=O)O` (racemic) [D,L-AP7, D,L-2-amino-7-phosphonoheptanoic acid, reference compound], the figures for the Ki (at NMDA receptor; in data set [1]) were 5.4 µM and more than 300 µM, respectively. Further, the “Receptor binding, KA (Ki)” value on KA (kainate) receptor is more than 300 µM.

The values are drawn from patent US4918064A, “Phenyl glycines for use in reducing neurotoxic injury” (G. D. Searle & Co., priority 1987, dated 1990).
